Data taken from PubChem BioAssay (NCI).
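Compound exposure: 48 hours, 5 concentrations, 96-well plates. TGI: concentration producing complete growth inhibition.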

Experiments:
Experiment in all cases: NCI anticancer screen, dose series, 48 h
786-0 renal = test system: 786-0 renal
A498 renal = test system: A498 renal
A549 NSCLC = test system: A549 NSCLC
BT-549 breast = test system: BT-549 breast
CAKI-1 renal = test system: CAKI-1 renal
CCRF-CEM leukemia = test system: CCRF-CEM leukemia
COLO 205 colon = test system: COLO 205 colon
EKVX NSCLC = test system: EKVX NSCLC
HCC-2998 colon = test system: HCC-2998 colon
HCT-15 colon = test system: HCT-15 colon
HL-60(TB) leukemia = test system: HL-60(TB) leukemia
HOP-62 NSCLC = test system: HOP-62 NSCLC
HOP-92 NSCLC = test system: HOP-92 NSCLC
HS 578T breast = test system: HS 578T breast
IGROV1 ovarian = test system: IGROV1 ovarian
K-562 leukemia = test system: K-562 leukemia
M14 melanoma = test system: M14 melanoma
MCF7 breast = test system: MCF7 breast
MDA-MB-231 breast = test system: MDA-MB-231 breast
MDA-N = test system: MDA-N
MOLT-4 leukemia = test system: MOLT-4 leukemia
NCI-H226 lung = test system: NCI-H226 lung
NCI-H23 lung = test system: NCI-H23 lung
NCI-H522 lung = test system: NCI-H522 lung
NCI/ADR-RES ovarian = test system: NCI/ADR-RES ovarian
OVCAR-3 ovarian = test system: OVCAR-3 ovarian
OVCAR-4 ovarian = test system: OVCAR-4 ovarian
OVCAR-8 ovarian = test system: OVCAR-8 ovarian
PC-3 prostate = test system: PC-3 prostate
RPMI-8226 leukemia = test system: RPMI-8226 leukemia
RXF 393 renal = test system: RXF 393 renal
SF-295 CNS = test system: SF-295 CNS
SF-539 CNS = test system: SF-539 CNS
SK-MEL-5 melanoma = test system: SK-MEL-5 melanoma
SK-OV-3 ovarian = test system: SK-OV-3 ovarian
SN12C renal = test system: SN12C renal
SNB-19 CNS = test system: SNB-19 CNS
SR leukemia = test system: SR leukemia
SW-620 colon = test system: SW-620 colon
U251 CNS = test system: U251 CNS
UACC-257 melanoma = test system: UACC-257 melanoma
UO-31 renal = test system: UO-31 renal
ACHN renal = test system: ACHN renal
DU-145 prostate = test system: DU-145 prostate
HCT-116 colon = test system: HCT-116 colon
HT29 colon = test system: HT29 colon
KM12 colon = test system: KM12 colon
LOX IMVI melanoma = test system: LOX IMVI melanoma
MALME-3M melanoma = test system: MALME-3M melanoma
MDA-MB-435 = test system: MDA-MB-435
NCI-H460 lung = test system: NCI-H460 lung
OVCAR-5 ovarian = test system: OVCAR-5 ovarian
SF-268 CNS = test system: SF-268 CNS
SK-MEL-28 melanoma = test system: SK-MEL-28 melanoma
SNB-75 CNS = test system: SNB-75 CNS
TK-10 renal = test system: TK-10 renal
UACC-62 melanoma = test system: UACC-62 melanoma
SK-MEL-2 melanoma = test system: SK-MEL-2 melanoma
T-47D breast = test system: T-47D breast

## CC(C)NC(=O)OCc1c(COC(=O)NC(C)C)c(-c2cc[n+](COC(=O)CC(C)(C)C)cc2)n2c1CCC2
786-0 renal
  TGI: > 100 µM
A498 renal
  TGI: > 100 µM
A549 NSCLC
  TGI: > 100 µM
BT-549 breast
  TGI: > 100 µM
CAKI-1 renal
  TGI: > 100 µM
CCRF-CEM leukemia
  TGI: > 100 µM
COLO 205 colon
  TGI: > 100 µM
EKVX NSCLC
  TGI: > 100 µM
HCC-2998 colon
  TGI: > 100 µM
HCT-15 colon
  TGI: > 100 µM
HL-60(TB) leukemia
  TGI: > 100 µM
HOP-62 NSCLC
  TGI: > 100 µM
HOP-92 NSCLC
  TGI: > 100 µM
HS 578T breast
  TGI: > 100 µM
IGROV1 ovarian
  TGI: > 100 µM
K-562 leukemia
  TGI: > 100 µM
M14 melanoma
  TGI: > 100 µM
MCF7 breast
  TGI: > 100 µM
MDA-MB-231 breast
  TGI: > 100 µM
MDA-N
  TGI: > 100 µM
MOLT-4 leukemia
  TGI: > 100 µM
NCI-H226 lung
  TGI: > 100 µM
NCI-H23 lung
  TGI: > 100 µM
NCI-H522 lung
  TGI: > 100 µM
NCI/ADR-RES ovarian
  TGI: > 100 µM
OVCAR-3 ovarian
  TGI: > 100 µM
OVCAR-4 ovarian
  TGI: > 100 µM
OVCAR-8 ovarian
  TGI: > 100 µM
PC-3 prostate
  TGI: > 100 µM
RPMI-8226 leukemia
  TGI: > 100 µM
RXF 393 renal
  TGI: > 100 µM
SF-295 CNS
  TGI: > 100 µM
SF-539 CNS
  TGI: > 100 µM
SK-MEL-5 melanoma
  TGI: > 100 µM
SK-OV-3 ovarian
  TGI: > 100 µM
SN12C renal
  TGI: > 100 µM
SNB-19 CNS
  TGI: > 100 µM
SR leukemia
  TGI: > 100 µM
SW-620 colon
  TGI: > 100 µM
U251 CNS
  TGI: > 100 µM
UACC-257 melanoma
  TGI: > 100 µM
UO-31 renal
  TGI: > 100 µM

## O=C(C(=O)c1cc(-c2ccccc2)nc2ccc3ccccc3c12)c1ccccc1
786-0 renal
  TGI: > 100 µM
A498 renal
  TGI: > 100 µM
A549 NSCLC
  TGI: > 100 µM
ACHN renal
  TGI: > 100 µM
BT-549 breast
  TGI: > 100 µM
CAKI-1 renal
  TGI: > 100 µM
CCRF-CEM leukemia
  TGI: > 100 µM
COLO 205 colon
  TGI: > 100 µM
DU-145 prostate
  TGI: > 100 µM
EKVX NSCLC
  TGI: > 100 µM
HCC-2998 colon
  TGI: > 100 µM
HCT-116 colon
  TGI: 39 µM
HCT-15 colon
  TGI: > 100 µM
HL-60(TB) leukemia
  TGI: 78.7 µM
HOP-62 NSCLC
  TGI: > 100 µM
HS 578T breast
  TGI: 81.4 µM
HT29 colon
  TGI: > 100 µM
IGROV1 ovarian
  TGI: > 100 µM
K-562 leukemia
  TGI: > 100 µM
KM12 colon
  TGI: > 100 µM
LOX IMVI melanoma
  TGI: > 100 µM
M14 melanoma
  TGI: > 100 µM
MALME-3M melanoma
  TGI: > 100 µM
MCF7 breast
  TGI: > 100 µM
MDA-MB-231 breast
  TGI: > 100 µM
MDA-MB-435
  TGI: > 100 µM
MDA-N
  TGI: > 100 µM
MOLT-4 leukemia
  TGI: > 100 µM
NCI-H226 lung
  TGI: > 100 µM
NCI-H23 lung
  TGI: > 100 µM
NCI-H460 lung
  TGI: > 100 µM
NCI/ADR-RES ovarian
  TGI: > 100 µM
OVCAR-3 ovarian
  TGI: > 100 µM
OVCAR-4 ovarian
  TGI: 49.8 µM
OVCAR-5 ovarian
  TGI: > 100 µM
OVCAR-8 ovarian
  TGI: > 100 µM
PC-3 prostate
  TGI: > 100 µM
RPMI-8226 leukemia
  TGI: > 100 µM
RXF 393 renal
  TGI: > 100 µM
SF-268 CNS
  TGI: > 100 µM
SF-295 CNS
  TGI: > 100 µM
SF-539 CNS
  TGI: > 100 µM
SK-MEL-28 melanoma
  TGI: > 100 µM
SK-MEL-5 melanoma
  TGI: > 100 µM
SK-OV-3 ovarian
  TGI: > 100 µM
SN12C renal
  TGI: > 100 µM
SNB-19 CNS
  TGI: > 100 µM
SNB-75 CNS
  TGI: 40.7 µM
SR leukemia
  TGI: > 100 µM
SW-620 colon
  TGI: > 100 µM
TK-10 renal
  TGI: > 100 µM
U251 CNS
  TGI: > 100 µM
UACC-257 melanoma
  TGI: > 100 µM
UACC-62 melanoma
  TGI: > 100 µM
UO-31 renal
  TGI: > 100 µM

## CCOC(=O)NC(NCC(O)c1ccccc1)(C(F)(F)F)C(F)(F)F (centres undefined)
A498 renal
  TGI: > 100 µM
A549 NSCLC
  TGI: > 100 µM
ACHN renal
  TGI: > 100 µM
BT-549 breast
  TGI: > 100 µM
CAKI-1 renal
  TGI: > 100 µM
CCRF-CEM leukemia
  TGI: > 100 µM
DU-145 prostate
  TGI: > 100 µM
EKVX NSCLC
  TGI: > 100 µM
HCC-2998 colon
  TGI: > 100 µM
HCT-116 colon
  TGI: > 100 µM
HCT-15 colon
  TGI: > 100 µM
HL-60(TB) leukemia
  TGI: > 100 µM
HOP-62 NSCLC
  TGI: > 100 µM
HOP-92 NSCLC
  TGI: > 100 µM
HS 578T breast
  TGI: > 100 µM
HT29 colon
  TGI: > 100 µM
IGROV1 ovarian
  TGI: > 100 µM
K-562 leukemia
  TGI: > 100 µM
KM12 colon
  TGI: > 100 µM
LOX IMVI melanoma
  TGI: > 100 µM
M14 melanoma
  TGI: > 100 µM
MALME-3M melanoma
  TGI: > 100 µM
MCF7 breast
  TGI: > 100 µM
MDA-MB-231 breast
  TGI: > 100 µM
MDA-MB-435
  TGI: > 100 µM
MDA-N
  TGI: > 100 µM
MOLT-4 leukemia
  TGI: > 100 µM
NCI-H226 lung
  TGI: > 100 µM
NCI-H23 lung
  TGI: > 100 µM
NCI-H460 lung
  TGI: > 100 µM
NCI-H522 lung
  TGI: > 100 µM
OVCAR-3 ovarian
  TGI: > 100 µM
OVCAR-5 ovarian
  TGI: > 100 µM
RPMI-8226 leukemia
  TGI: > 100 µM
RXF 393 renal
  TGI: > 100 µM
SF-268 CNS
  TGI: > 100 µM
SF-539 CNS
  TGI: > 100 µM
SK-MEL-2 melanoma
  TGI: > 100 µM
SK-MEL-28 melanoma
  TGI: > 100 µM
SK-MEL-5 melanoma
  TGI: > 100 µM
SK-OV-3 ovarian
  TGI: > 100 µM
SN12C renal
  TGI: > 100 µM
SNB-19 CNS
  TGI: > 100 µM
SNB-75 CNS
  TGI: > 100 µM
SR leukemia
  TGI: > 100 µM
SW-620 colon
  TGI: > 100 µM
T-47D breast
  TGI: > 100 µM
TK-10 renal
  TGI: > 100 µM
U251 CNS
  TGI: > 100 µM
UACC-257 melanoma
  TGI: > 100 µM
UACC-62 melanoma
  TGI: > 100 µM
UO-31 renal
  TGI: > 100 µM
